Columns and labels:
[1] = Behaviour of the bioactive in distilled water at 37° C. without solubilizer; format: physicochemical; conditions: 2 grams in 200 ml distilled water, no solubilizer
Method: (§1) • A. Two beakers each containing 200 ml distilled water (37° C.) were taken. • B. To each beaker, 2 grams commercially available curcuminoids (Curcumin C3 Complex®) was added and gently mixed. […] To the first beaker, 0.35 gram of Bacopa glycosides including 25% w/w to 75% w/w of total Bacosides (Bacopin®) was added and gently mixed for about 15 minutes. […] This corresponded to a Critical Micelle Concentration (CMC) of 17.5% • D. To the second beaker, 0.40 gram of Centella glycosides including at least 8% w/w of total triterpenes (Centellin®) was added and gently mixed for about 15 minutes. […] This corresponded to Critical Micelle Concentration (CMC) of 20.0%.
(§2) • A. Five beakers each containing 200 ml distilled water at 37° C. were taken. To 3 beakers were added 2 gm of bioactive compounds forskolin (Forslean® 95%), boswellic acids (Boswellin® 70%) and pterostilbene 99% respectively. To the other 2 beakers were added 2 gm of Saw Palmetto extract 85% and Ginger Soft extract SCFE 35% respectively. […] The Critical Micelle Concentration (CMC) for each system was determined (Table A; FIGS. 3A, 3B, 3C, 3D and 3E)
(§3) • A. To a beaker containing 200 ml distilled water (37° C.) was added 2 grams of tetrahydrocurcuminoids (C3 Reduct®). […] The majority (˜70%) of tetrahydrocurcuminoids was not observable at the bottom of the beaker anymore due to formation of emulsion (FIG. 4)

[2] = format: physicochemical
Method: as §1, §2, §3

SMILES	solubility in distilled water (observation) [1]	CMC % (wt/wt) [2]
C=C[C@@]1(C)CC(=O)[C@]2(O)[C@@]3(C)[C@@H](O)CCC(C)(C)[C@@H]3[C@H](O)[C@H](OC(C)=O)[C@@]2(C)O1 [ForsLean 95%, forskolin]	did not go into solution	20% (wt/wt)
COc1cc(/C=C/c2ccc(O)cc2)cc(OC)c1 [Pterostilbene 99%, pterostilbene]	did not go into solution	14.50% (wt/wt)

— patent US20140303258A1, “Method of solubilizing insoluble bioactive compounds using triterpene glycosides and compositions thereof” (priority 2013, published 2014)
